{"source": "ChEMBL document CHEMBL5215006", "about": "“Antitumor Activity of Piceamycin by Upregulation of N-Myc Downstream-Regulated Gene 1 in Human Colorectal Cancer Cells” (J Nat Prod, 2022)", "assay": "Toxicity in Balb/c mouse xenografted with human HCT-116 cells assessed as body weight change at 10 mg/kg,ip administrated for 18 days by 3 times per week", "format": "organism-based", "conditions": "in vivo, 432 h, time 18 day"}
{"smiles": "CCc1c2c(nc3ccc(OC(=O)N4CCC(N5CCCCC5)CC4)cc13)-c1cc3c(c(=O)n1C2)COC(=O)[C@]3(O)CC", "note": "[IRINOTECAN]", "values": [{"measurement": "Activity", "value": "Toxic"}]}
